# Laboratory results published in US5789431A, “Naphthoquinone antitumor compound and method” (The University of North Carolina at Chapel Hill, priority 1996, dated 1998).
# Experiments:
# [1] = system: LOX1MVI; assay: in vitro melanoma cell growth inhibition (NCI screen)
# [2] = system: M14; assay: as above
# [3] = system: SK-MEL-2; assay: as above
# [4] = system: SK-MEL-5; assay: as above
# [5] = system: UACC-257; assay: as above
# [6] = system: UACC-62; assay: as above
# [7] = system: HL-60(TB); assay: in vitro leukemia cell growth inhibition (NCI screen)
# [8] = system: SF-539; assay: in vitro CNS cancer cell growth inhibition (NCI screen)
# [9] = system: SNB-19; assay: as above
# [10] = system: COLO-205; assay: in vitro colon cancer cell growth inhibition (NCI screen)
# [11] = system: HCT-15; assay: as above
# [12] = system: SW 620; assay: as above
# [13] = system: IGROV1; assay: in vitro ovarian cancer cell growth inhibition (NCI screen)
# [14] = system: OVCAR-3; assay: as above
# [15] = system: OVCAR-4; assay: as above; details: OVACR-4
# [16] = system: MCF-7; assay: in vitro breast cancer cell growth inhibition (NCI screen)
# [17] = system: MDA-MB-435; assay: as above
# [18] = system: MDA-N; assay: as above
# [19] = system: HOP-92; assay: in vitro non-small cell lung cancer cell growth inhibition (NCI screen)
# [20] = system: NCI-H23; assay: as above
# [21] = system: NCI-H460; assay: as above
# [22] = system: NCI-H522; assay: as above
# [23] = system: MALME-3M; assay: in vitro melanoma cell growth inhibition (NCI screen)
# [24] = system: HCT-116; assay: in vitro colon cancer cell growth inhibition (NCI screen)
# [25] = system: RXF-393; assay: in vitro renal cancer cell growth inhibition (NCI screen)
# [26] = system: MCF7/ADR-RES; assay: in vitro breast cancer cell growth inhibition (NCI screen)
# [27] = system: MDA-MB-231/ATCC; assay: as above
# [28] = system: T-47D; assay: as above
# [29] = system: SK-OV-3; assay: in vitro ovarian cancer cell growth inhibition (NCI screen)
# [30] = system: PC-3; assay: in vitro prostate cancer cell growth inhibition (NCI screen)
# [31] = system: human tumor cell lines; format: cell-based; details: for cytotoxicity against tumor cells (in words): cancer cell line panel; for GI50: Homo sapiens, cancer cell panel, general / most cell lines, read-out: logGI50 values in the cancer cell line panel (converted)
# [32] = system: M19-MEL; assay: in vitro melanoma cell growth inhibition (NCI screen)
# [33] = system: CCRF-CEM; assay: in vitro leukemia cell growth inhibition (NCI screen)
# [34] = system: SF-268; assay: in vitro CNS cancer cell growth inhibition (NCI screen)
# [35] = system: SNB-75; assay: as above
# [36] = system: U 251; assay: as above
# [37] = system: DLD-1; assay: in vitro colon cancer cell growth inhibition (NCI screen)
# [38] = system: TK-10; assay: in vitro renal cancer cell growth inhibition (NCI screen)
# [39] = system: OVCAR-8; assay: in vitro ovarian cancer cell growth inhibition (NCI screen)
# [40] = system: HOP-62; assay: in vitro non-small cell lung cancer cell growth inhibition (NCI screen)
# [41] = system: HT 29; assay: in vitro colon cancer cell growth inhibition (NCI screen)
# [42] = system: KM 20L2; assay: as above
# [43] = system: LXFL 529; assay: in vitro non-small cell lung cancer cell growth inhibition (NCI screen)
# [44] = system: SN12C; assay: in vitro renal cancer cell growth inhibition (NCI screen)
# [45] = system: BT-549; assay: in vitro breast cancer cell growth inhibition (NCI screen)
# [46] = system: NCI-H266; assay: in vitro non-small cell lung cancer cell growth inhibition (NCI screen)
# [47] = system: K-562; assay: in vitro leukemia cell growth inhibition (NCI screen)
# [48] = system: MOLT-4; assay: as above
# [49] = system: ACHN; assay: in vitro renal cancer cell growth inhibition (NCI screen)
# [50] = system: UO-31; assay: as above
Compound,cytotoxicity log GI50 [2],cytotoxicity log GI50 [5],cytotoxicity log GI50 [6],cytotoxicity log GI50 [7],cytotoxicity log GI50 [9],cytotoxicity log GI50 [10],cytotoxicity log GI50 [11],cytotoxicity log GI50 [12],cytotoxicity log GI50 [13],cytotoxicity log GI50 [14],cytotoxicity log GI50 [15],cytotoxicity log GI50 [17],cytotoxicity log GI50 [20],cytotoxicity log GI50 [21],cytotoxicity log GI50 [22],cytotoxicity log GI50 [23],cytotoxicity log GI50 [25],cytotoxicity log GI50 [27],cytotoxicity log GI50 [30],cytotoxicity log GI50 [35],other results
COC(=O)CCC(=O)NC1=C(NCc2ccccc2)C(=O)c2ccccc2C1=O [Compound 55],-4.73 M,-4.78 M,-4.76 M,-4.66 M,-4.66 M,-4.69 M,-4.77 M,-4.70 M,-4.75 M,-5.40 M,-4.73 M,-4.72 M,-4.67 M,-4.74 M,-4.72 M,,,,,,cytotoxicity log GI50 [1]: -4.66 M; cytotoxicity log GI50 [3]: -4.73 M; cytotoxicity log GI50 [4]: -4.92 M; cytotoxicity log GI50 [8]: -4.70 M; cytotoxicity log GI50 [16]: -4.76 M; cytotoxicity log GI50 [18]: -4.79 M; cytotoxicity log GI50 [19]: -4.80 M
CCNC1=C(NC(=O)c2ccccc2)C(=O)c2ccccc2C1=O [Compound 47],-4.58 M,-4.63 M,-4.70 M,,,-4.78 M,-4.73 M,-4.63 M,,-4.47 M,,-5.14 M,,,-4.95 M,-4.77 M,-4.62 M,-5.21 M,-4.74 M,,cytotoxicity log GI50 [24]: -4.59 M; cytotoxicity log GI50 [26]: -4.78 M; cytotoxicity log GI50 [18]: -5.31 M; cytotoxicity log GI50 [28]: -4.85 M; cytotoxicity log GI50 [29]: -4.62 M
NC1=C(NC(=O)Cc2ccc(F)cc2)C(=O)c2ccccc2C1=O [Compound 3c],,,,-4.59 M,-4.63 M,,,,-4.71 M,-4.88 M,,,-4.87 M,,-4.79 M,,-4.68 M,,,-4.49 M,cytotoxicity against tumor cells (in words) [31]: inactive against all representative cancer cell lines; cytotoxicity log GI50 [32]: -5.16 M; cytotoxicity log GI50 [33]: -4.55 M; cytotoxicity log GI50 [34]: -4.54 M; cytotoxicity log GI50 [36]: -5.09 M; cytotoxicity log GI50 [37]: -4.95 M; cytotoxicity log GI50 [38]: -4.57 M; cytotoxicity log GI50 [39]: -4.47 M; cytotoxicity log GI50 [40]: -4.56 M; cytotoxicity log GI50 [19]: -4.48 M
O=C1c2ccccc2C(=O)c2[nH]c(Cc3ccccc3F)nc21 [Compound 4b],,,,-4.45 M,-4.42 M,-4.47 M,,-4.42 M,,-4.84 M,-4.55 M,,-4.56 M,-4.47 M,-4.67 M,,-4.69 M,,,,cytotoxicity log GI50 [8]: -4.51 M; cytotoxicity log GI50 [36]: -5.10 M; cytotoxicity log GI50 [37]: -4.79 M; cytotoxicity log GI50 [41]: -4.49 M; cytotoxicity log GI50 [42]: -4.47 M; cytotoxicity log GI50 [38]: -4.53 M; cytotoxicity log GI50 [43]: -4.50 M
CCn1c(-c2ccc(OC)cc2)nc2c1C(=O)c1ccccc1C2=O [Compound 27],,,,,,,,,,,,,-4.21 M,,,,,,,,GI50 [31]: ~10 µM; cytotoxicity log GI50 [40]: -4.22 M
CCc1nc2c(n1CC)C(=O)c1ccccc1C2=O [Compound 23],-4.63 M,-4.60 M,-4.54 M,,,-4.77 M,,-4.57 M,-4.61 M,-4.73 M,,-4.74 M,,,,-4.81 M,-4.70 M,-4.77 M,-4.73 M,-4.68 M,GI50 [31]: ~10 µM; cytotoxicity log GI50 [41]: -4.60 M; cytotoxicity log GI50 [44]: -4.56 M; cytotoxicity log GI50 [38]: -4.66 M; cytotoxicity log GI50 [45]: -4.76 M; cytotoxicity log GI50 [28]: -4.74 M; cytotoxicity log GI50 [46]: -4.54 M
"Cc1nc2c(n1CCCl)C(=O)c1ccccc1C2=O [Compound 21, 1-(2'-Chloroethyl)-2-methylnaphth[2,3-d]imidazole-4,9-dione]",-5.33 M,-4.85 M,-4.89 M,-4.79 M,,-4.85 M,-5.10 M,,-4.94 M,,-4.83 M,-4.82 M,,-4.83 M,,-5.24 M,-6.78 M,-4.81 M,-5.07 M,-4.84 M,cytotoxicity against tumor cells (in words) [31]: comparable to those of compounds 6-14; cytotoxicity log GI50 [47]: -4.80 M; cytotoxicity log GI50 [48]: -4.89 M; cytotoxicity log GI50 [36]: -4.90 M; cytotoxicity log GI50 [41]: -4.80 M; cytotoxicity log GI50 [49]: -6.32 M; cytotoxicity log GI50 [50]: -6.22 M; cytotoxicity log GI50 [26]: -4.79 M; cytotoxicity log GI50 [29]: -5.28 M
